This note sets out measurements from patent EP0903343A1, “Alpha-Substituted phenylpropionic acid derivative and medicine containing the same” (SSP Co., Ltd., priority 1997, dated 1999).

The first assay concerns db/db Mice. The assay is described as follows: Antidiabetic effect on diabetic model mice (blood glucose lowering). The format is in vivo. The following applies: Mus musculus, po, 10 mg/kg/day orally once a day for 4 days, blood glucose 18 to 24 hours after final administration, vs control group, read-out: Percent reduction (%) of blood glucose. The method, then:
The α-substituted phenylpropionic acid derivatives (1) according to the present invention were used to conduct a test for evaluating their activities against model mice suffering from non-insulin dependent diabetes mellitus (NIDDM). Incidentally, pioglitazone was used as a comparative compound.
db/db Mice (Crea Co.; preliminarily rearing male mice aged 7 to 9 weeks for a week and using 4 or 5 mice having a blood glucose level of at least 300 mg/dl as a group) were used as subject animals. A predetermined amount of each of the compounds according to the present invention or the comparative compound was orally administered to the mice for 4 days once a day with the compound suspended in a 0.5% aqueous solution of sodium carboxymethyl cellulose. At 18 to 24 hours after the final administration, blood was collected from each of the subject animals to determine its blood glucose level (found value) by means of a simplified blood glucose meter, Mediace (manufactured by Terumo Corporation). On the other hand, the blood glucose level of a group of mice (control group) to which only a 0.5% aqueous solution of sodium carboxymethyl cellulose had been administered was also determined (control value).
On the basis of the thus-determined blood glucose level as to each of the compounds according to the present invention and the comparative compound, percent reduction of blood glucose was calculated out in accordance with the following equation. Percent reduction (%) = [(Control value - Found value)/(Control value)] x 100 [formula]
As for `CCOC(Cc1ccc(OCCn2nc(C)c3ccccc3c2=O)cc1)C(=O)O` (stereo not drawn) [Compound 1BC], the inhibition in vivo at 10 mg/kg/day worked out at 50%.

Staying with this assay, now noted: Mus musculus, po, 20 mg/kg/day orally once a day for 4 days, blood glucose 18 to 24 hours after final administration, vs control group, read-out: Percent reduction (%) of blood glucose.
Turning to `CCc1ccc(CCOc2ccc(CC3SC(=O)NC3=O)cc2)nc1` (stereo not drawn) [Pioglitazone, pioglitazone, reference compound], the inhibition in vivo at 20 mg/kg/day amounted to 26%.
Turning to `CCOC(Cc1ccc(OCCn2ccc3ccccc3c2=O)cc1)C(=O)O` (stereo not drawn) [Compound 1BS], the inhibition in vivo at 20 mg/kg/day worked out at 60%.
On the same count and under the same terms, next, `CCOC(Cc1ccc(OCCN2COc3ccccc3C2=O)cc1)C(N)=O` (stereo not drawn) [Compound 1J]: 73%.
`CCOC(=O)C(Cc1ccc(OCCn2nc(C)c3ccccc3c2=O)cc1)OCC` (stereo not drawn) [Compound 1BI, ethyl 2-ethoxy-3-{4-[2-(4-methyl-1-oxo-1,2-dihydrophthalazin-2-yl)ethoxy]phenyl}propanoate]: the inhibition in vivo at 20 mg/kg/day is 52%.
On the same count and under the same terms, to `CCOC(Cc1ccc(OCCn2ncc3ccccc3c2=O)cc1)C(=O)NO` (stereo not drawn) [Compound 1AA, 2-ethoxy-3-{4-[2-(1-oxo-1,2-dihydrophthalazin-2-yl)ethoxy]phenyl}propanohydroxamic acid] belongs 48%; to `CCOC(Cc1ccc(OCCn2ncc3ccccc3c2=O)cc1)C(=O)O` (stereo not drawn) [Compound 1B, 2-ethoxy-3-{4-[2-(1-oxo-1,2-dihydrophthalazin-2-yl)ethoxy]phenyl}propanoic acid], 43%.
Take `CCOC(Cc1ccc(OCCn2c(=O)c3ccc(C(F)(F)F)cc3n(C)c2=O)cc1)C(=O)O` (stereo not drawn) [Compound 1AR]: the inhibition in vivo at 20 mg/kg/day was 38%.

Staying with this assay, now noted: Mus musculus, po, 50 mg/kg/day orally once a day for 4 days, blood glucose 18 to 24 hours after final administration, vs control group, read-out: Percent reduction (%) of blood glucose.
Take `CCOC(Cc1ccc(CCn2cnc3ccccc3c2=O)cc1)C(N)=O` (stereo not drawn) [Compound 1Q, 2-ethoxy-3-{4-[2-(4-oxo-3,4-dihydroquinazolin-3-yl)ethyl]phenyl}propanamide]: the inhibition in vivo at 50 mg/kg/day is 49%.
On to `CCc1ccc(CCOc2ccc(CC3SC(=O)NC3=O)cc2)nc1` (stereo not drawn) [Pioglitazone, pioglitazone, reference compound], for which the inhibition in vivo at 50 mg/kg/day stood at 44%.
Regarding `CCSC(Cc1ccc(OCCN2COc3ccccc3C2=O)cc1)C(=O)O` (stereo not drawn) [Compound 1O, 2-ethylthio-3-{4-[2-(4-oxo-3,4-dihydro-2H-1,3-benzoxazin-3-yl)ethoxy]phenyl}propanoic acid], the inhibition in vivo at 50 mg/kg/day was determined as 42%.
For the compound `CCOC(Cc1ccc(OCCN2COc3ccccc3C2=O)cc1)C(=O)O` (stereo not drawn) [Compound 1K], the inhibition in vivo at 50 mg/kg/day is 69%.
Regarding `CC(C)OC(Cc1ccc(OCCN2COc3ccccc3C2=O)cc1)C(N)=O` (stereo not drawn) [Compound 1N], the inhibition in vivo at 50 mg/kg/day was 72%.
For the compound `COC(Cc1ccc(OCCN2COc3ccccc3C2=O)cc1)C(N)=O` (stereo not drawn) [Compound 1P, 2-methoxy-3-{4-[2-(4-oxo-3,4-dihydro-2H-1,3-benzoxazin-3-yl)ethoxy]phenyl}propanamide], the inhibition in vivo at 50 mg/kg/day was found to be 66%.
For `CCOC(Cc1ccc(OCCn2ncc3ccccc3c2=O)cc1)C(N)=O` (stereo not drawn) [Compound 1A, 2-ethoxy-3-{4-[2-(1-oxo-1,2-dihydrophthalazin-2-yl)ethoxy]phenyl}propanamide], the inhibition in vivo at 50 mg/kg/day was found to be 73%.
